Results from US8536202B2, “Triazole-substituted anthranilamides as pesticides” (Bayer Cropscience AG, priority 2010, dated 2013).
Like-named read-outs stand apart in the source and are kept apart here. Blank lines part the entries; values can stand above or below the compound they belong to.

Columns and labels:
[1] = tested on: larvae of the mustard beetle (Phaedon cochleariae); assay: Phaedon test (PHAECO spray treatment); type: in vivo; conditions: 168 h, 100 g/ha, after 7 days, read-out: activity in %
Protocol: Solvents: 78.0 parts by weight of acetone • • 1.5 parts by weight of dimethylformamide
Emulsifier: 0.5 part by weight of alkylaryl polyglycol ether
An appropriate preparation of active compound is prepared by mixing 1 part by weight of active compound with the stated amounts of solvent and emulsifier and diluting the concentrate with emulsifier-containing water to the desired concentration.
After 7 days, the activity in % is ascertained. Here, 100% means that all of the beetle larvae have been killed; 0% means that no beetle larvae have been killed.

[2] = log P determination by HPLC on reversed-phase columns (EEC Directive 79/831 Annex V.A8); type: physicochemical; conditions: pH 2.7
In short: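 Calibration used unbranched alkan-2-ones of 3 to 16 carbons with known log P, values interpolated linearly from retention times between neighbouring standards. Acidic-range LC-MS run at pH 2.7, eluents aqueous and acetonitrile formic acid 0.1%, linear gradient 10% to 95% acetonitrile.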

[3] = tested on: caterpillars of the armyworm (Spodoptera frugiperda); assay: Spodoptera frugiperda test (SPODFR spray treatment); type: in vivo; conditions: 168 h, 100 g/ha, after 7 days, read-out: activity in %
In short: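 Percent caterpillar mortality read 7 days after infestation (0% none killed, 100% all killed). Treatment was a spray of the acetone/DMF/emulsifier formulation, water-diluted to test concentration, onto Zea mays leaf discs, allowed to dry before larvae were added.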

[4] = reversed-phase C18 HPLC column, HPLC on reversed-phase columns (C 18), EEC Directive 79/831 Annex V.A8, read-out: logP

Compound: CNC(=O)c1cc(C#N)cc(C)c1NC(=O)c1cc(Cn2nnc3c(Cl)cc(C(F)(F)F)cc32)nn1-c1ncccc1Cl [Example 98]
pest or weed control at 100 g/ha [1]: 100%
chromatographic logP [2]: 3.24
pest or weed control at 100 g/ha [3]: 100%

Compound: CNC(=O)c1cc(C#N)cc(C)c1NC(=O)c1cc(Cn2nnc3c(Br)cc(OC(F)(F)F)cc32)nn1-c1ncccc1Cl [Example 99]
pest or weed control at 100 g/ha [1]: 100%
chromatographic logP [2]: 3.37
pest or weed control at 100 g/ha [3]: 100%

Compound: CNC(=O)c1cc(C#N)cc(C)c1NC(=O)c1cc(Cn2nc3cc(OC(F)(F)F)cc(Br)c3n2)nn1-c1ncccc1Cl [Example 100]
pest or weed control at 100 g/ha [1]: 100%
chromatographic logP [2]: 3.78
pest or weed control at 100 g/ha [3]: 100%

Compound: CNC(=O)c1cc(C#N)cc(C)c1NC(=O)c1cc(Cn2nc3ccc(C(F)(F)F)cc3n2)nn1-c1ncccc1Cl [Example 102]
pest or weed control at 100 g/ha [1]: 100%
chromatographic logP [2]: 3.19
pest or weed control at 100 g/ha [3]: 100%

Compound: Cc1cc(C#N)cc(C(=O)NC(C)(C)C)c1NC(=O)c1cc(Cn2nc3ccc(Br)cc3n2)nn1-c1ncccc1Cl [Example 107]
pest or weed control at 100 g/ha [1]: 100%
chromatographic logP [2]: 3.85
pest or weed control at 100 g/ha [3]: 100%

Compound: Cc1cc(C#N)cc(C(=O)NC(C)(C)C)c1NC(=O)c1cc(Cn2nnc3c(Cl)c(Cl)c(Cl)cc32)nn1-c1ncccc1Cl [Example 108]
pest or weed control at 100 g/ha [1]: 100%
chromatographic logP [2]: 4.18
pest or weed control at 100 g/ha [3]: 100%

chromatographic logP [2, 4]: 4.02
Compound: Cc1cc(C#N)cc(C(=O)NC(C)(C)C)c1NC(=O)c1cc(Cn2nnc3cc(Br)c(C(F)(F)F)cc32)nn1-c1ncccc1Cl [Example 109]
pest or weed control at 100 g/ha [1]: 100%
pest or weed control at 100 g/ha [3]: 100%

chromatographic logP [2, 4]: 4.09
Compound: Cc1cc(C#N)cc(C(=O)NC(C)(C)C)c1NC(=O)c1cc(Cn2nnc3c(Br)cc(OC(F)(F)F)cc32)nn1-c1ncccc1Cl [Example 111]
pest or weed control at 100 g/ha [1]: 100%
pest or weed control at 100 g/ha [3]: 100%

chromatographic logP [2, 4]: 4.59
Compound: Cc1cc(C#N)cc(C(=O)NC(C)(C)C)c1NC(=O)c1cc(Cn2nc3cc(OC(F)(F)F)cc(Br)c3n2)nn1-c1ncccc1Cl [Example 112]
pest or weed control at 100 g/ha [1]: 100%
pest or weed control at 100 g/ha [3]: 100%

Compound: Cc1cc(C#N)cc(C(=O)NC(C)(C)C)c1NC(=O)c1cc(Cn2nnc3cc(C(F)(F)F)ccc32)nn1-c1ncccc1Cl [Example 113]
pest or weed control at 100 g/ha [1]: 100%
chromatographic logP [2]: 3.5
pest or weed control at 100 g/ha [3]: 100%

Compound: Cc1cc(C#N)cc(C(=O)NC(C)(C)C)c1NC(=O)c1cc(Cn2nc3ccc(C(F)(F)F)cc3n2)nn1-c1ncccc1Cl [Example 114]
pest or weed control at 100 g/ha [1]: 100%
chromatographic logP [2]: 3.94
pest or weed control at 100 g/ha [3]: 100%

Compound: Cc1cc(Cl)cc(C(=O)NC(C)C2CC2)c1NC(=O)c1cc(Cn2ccnn2)nn1-c1ncccc1Cl (stereo not drawn) [Example 117]
pest or weed control at 100 g/ha [1]: 100%
chromatographic logP [2]: 2.41
pest or weed control at 100 g/ha [3]: 100%

Compound: CNC(=O)c1cc(Cl)cc(C)c1NC(=O)c1cc(Cn2nccn2)nn1-c1ncccc1Cl [Example 118]
pest or weed control at 100 g/ha [1]: 100%
chromatographic logP [2]: 2.03
pest or weed control at 100 g/ha [3]: 100%

Compound: Cc1cc(Cl)cc(C(=O)NC(C)C)c1NC(=O)c1cc(Cn2nccn2)nn1-c1ncccc1Cl [Example 119]
pest or weed control at 100 g/ha [1]: 100%
chromatographic logP [2]: 2.5
pest or weed control at 100 g/ha [3]: 100%

Compound: Cc1cc(Cl)cc(C(=O)NC(C)C2CC2)c1NC(=O)c1cc(Cn2nccn2)nn1-c1ncccc1Cl (stereo not drawn) [Example 122]
pest or weed control at 100 g/ha [1]: 100%
chromatographic logP [2]: 2.81
pest or weed control at 100 g/ha [3]: 100%

Compound: CCNC(=O)c1cc(Cl)cc(C)c1NC(=O)c1cc(Cn2ncc(C(F)(F)F)n2)nn1-c1ncccc1Cl [Example 138]
pest or weed control at 100 g/ha [1]: 100%
chromatographic logP [2]: 3.26
pest or weed control at 100 g/ha [3]: 100%

Compound: Cc1cc(Cl)cc(C(=O)NC(C)(C)C)c1NC(=O)c1cc(Cn2ncc(C(F)(F)F)n2)nn1-c1ncccc1Cl [Example 140]
pest or weed control at 100 g/ha [1]: 100%
chromatographic logP [2]: 3.85
pest or weed control at 100 g/ha [3]: 100%
